Measurements: patent publication US10676485B2, “Macrocyclic MCL-1 inhibitors and methods of use” (AbbVie Inc., priority 2017, dated 2020)
Like-named read-outs stand apart in the source and are kept apart here.

Key:
[1] = tested on: NCI-H929 human multiple myeloma tumor cell line; assay: NCI-H929 cell viability assay (CellTiter-Glo); type: cell-based; conditions: NCI-H929, read-out: H929 Viability IC50 (μM), 10% FBS, 24 hours of compound treatment
GST-MCL-1 = GST-MCL-1 (Homo sapiens (Human), UniProt Q07820); assay: TR-FRET MCL-1 binding assay (competition with probe F-Bak)
Procedure: For the assay, an acoustic dispenser was used to prepare dilution series from 10 mM test compounds in 100% DMSO and directly transfer 160 nL into low volume 384-well assay plates. 8 μL of a protein/probe/antibody mix was then added to each well resulting in final concentrations listed below: Test compound: 11 three-fold dilutions beginning at 25 μM
The samples were then mixed on a shaker for 1 minute and incubated for an additional 2 hours at room temperature. For each assay plate, a probe/antibody and protein/antibody/probe mixture were included as a negative and a positive control, respectively. Fluorescence was measured on the Envision (Perkin Elmer) using a 340/35 nm excitation filter and 520/525 (F-Bak) and 495/510 nm (Tb-labeled anti-his antibody) emission filters. […] The TR-FRET assay can be performed in the presence of varying concentrations of human serum (HS) or fetal bovine serum (FBS). Compounds were tested both without HS and in the presence of 10% HS.

[2] = tested on: AMO-1 human multiple myeloma tumor cell line; assay: AMO-1 cell viability assay (CellTiter-Glo); type: cell-based; conditions: AMO1, read-out: AMO-1 Viability IC50 (μM), 10% FBS, 24 hours of compound treatment
Procedure: In one exemplary set of conditions, NCI-H929 or AMO-1 (ATCC. Manassas, Va.) were plated 4.000 cells per well in 384-well tissue culture plates (Corning. Corning, N.Y.) in a total volume of 25 μL RPMI tissue culture medium supplemented with 10% fetal bovine serum (Sigma-Aldrich, St. Louis, Mo.) and treated with a 3-fold serial dilution of the compounds of interest with a Labcyte Echo from a final concentration of 10 μM to 0.0005 μM. Each concentration was tested in duplicate at least 3 independent times. A luminescent signal proportional to the number of viable cells following 24 hours of compound treatment was determined using the CellTiter-Glo® Luminescent Cell Viability Assay according to the manufacturer's recommendations (Promega Corp., Madison, Wis.). The plates were read in a Perkin Elmer Envision using a Luminescence protocol. To generate dose response curves the data is normalized to percent viability by setting the averages of the staurosporine (10 uM) and DMSO only control wells to 0% and (00)% viability respectively. The IC50 values for the compounds are generated by fitting the normalized data with Accelrys Assay Explorer 3.3 to a sigmoidal curve model using linear regression.

[3] = read-out: MCL-1 Binding Ki (nM, 10% HS), in the presence of 10% HS
[4] = without HS, read-out: MCL-1 Binding Ki

Sequence of GST-MCL-1 (Q07820 whole entry): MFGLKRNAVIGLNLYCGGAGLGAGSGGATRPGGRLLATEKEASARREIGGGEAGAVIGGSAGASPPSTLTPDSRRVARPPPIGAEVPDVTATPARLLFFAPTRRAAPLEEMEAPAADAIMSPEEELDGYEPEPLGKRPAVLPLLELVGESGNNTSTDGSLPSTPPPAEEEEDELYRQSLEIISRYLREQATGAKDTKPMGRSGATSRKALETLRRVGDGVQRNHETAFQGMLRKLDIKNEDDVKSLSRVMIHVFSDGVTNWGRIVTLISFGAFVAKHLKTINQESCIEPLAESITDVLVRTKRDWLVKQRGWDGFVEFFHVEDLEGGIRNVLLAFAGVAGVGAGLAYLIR

COc1ccccc1-c1ccc(OC[C@@H]2COCCO2)c(COc2ccc3cc2C[C@H](C(=O)O)Oc2ncnc4sc(-c5ccc(F)cc5)c(c24)-c2c(C)c(Cl)c(c(Cl)c2C)O[C@H](CN2CCN(C)CC2)CO3)n1 [Example 53, (7R,16R)-19,23-dichloro-10-{[3-{[(2S)-1,4-dioxan-2-yl]methoxy}-6-(2-methoxyphenyl)pyridin-2-yl]methoxy}-1-(4-fluorophenyl)-20,22-dimethyl-16-[(4-methylpiperazin-1-yl)methyl]-7,8,15,16-tetrahydro-18,21-etheno-9,13-(metheno)-6,14,17-trioxa-2-thia-3,5-diazacyclononadeca[1,2,3-cd]indene-7-carboxylic acid]
IC50 [1]: > 1 µM | Ki (GST-MCL-1; [3]): 114 nM | Ki (GST-MCL-1; [4]): 13.7 nM | IC50 [2]: 0.311 µM

Cc1c(Cl)c2c(Cl)c(C)c1-c1c(C3=CCCC3)sc3ncnc(c13)O[C@@H](C(=O)O)Cc1cc(ccc1OCc1ccnc([C@H]3CC[C@](F)(COC[C@@H]4COCCO4)CC3)n1)OC[C@@H](CN1CCN(C)CC1)O2 [Example 33, (7R,16R)-19,23-dichloro-1-(cyclopent-1-en-1-yl)-10-({2-[(1R,4s)-4-({[(2S)-1,4-dioxan-2-yl]methoxy}methyl)-4-fluorocyclohexyl]pyrimidin-4-yl}methoxy)-20,22-dimethyl-16-[(4-methylpiperazin-1-yl)methyl]-7,8,15,16-tetrahydro-18,21-etheno-13,9-(metheno)-6,14,17-trioxa-2-thia-3,5-diazacyclononadeca[1,2,3-cd]indene-7-carboxylic acid]
IC50 [1]: 0.000586 µM | Ki (GST-MCL-1; [3]): 0.3 nM | Ki (GST-MCL-1; [4]): 0.023 nM | IC50 [2]: 0.000222 µM

Cc1c(Cl)c2c(Cl)c(C)c1-c1c(-c3ccc(F)cc3)sc3ncnc(c13)O[C@@H](C(=O)O)Cc1cc(ccc1OCc1ccnc(C3=CC[C@](F)(COC[C@@H]4COCCO4)CC3)n1)OC[C@@H](CN1CCN(C)CC1)O2 [Example 45, (7R,16R)-19,23-dichloro-10-({2-[(4S)-4-({[(2S)-1,4-dioxan-2-yl]methoxy}methyl)-4-fluorocyclohex-1-en-1-yl]pyrimidin-4-yl}methoxy)-1-(4-fluorophenyl)-20,22-dimethyl-16-[(4-methylpiperazin-1-yl)methyl]-7,8,15,16-tetrahydro-18,21-etheno-13,9-(metheno)-6,14,17-trioxa-2-thia-3,5-diazacyclononadeca[1,2,3-cd]indene-7-carboxylic acid]
IC50 [1]: 0.000258 µM | Ki (GST-MCL-1; [3]): 0.16 nM | Ki (GST-MCL-1; [4]): 0.012 nM | IC50 [2]: 0.000249 µM

Cc1c(Cl)c2c(Cl)c(C)c1-c1c(C3CCCCC3)sc3ncnc(c13)O[C@@H](C(=O)O)Cc1cc(ccc1OCc1ccnc(-c3ccc(OC[C@@H]4COCCO4)cc3)n1)OC[C@@H](CN1CCN(C)CC1)O2 [Example 17, (7R,16R)-19,23-dichloro-1-cyclohexyl-10-{[2-(4-{[(2S)-1,4-dioxan-2-yl]methoxy}phenyl)pyrimidin-4-yl]methoxy}-20,22-dimethyl-16-[(4-methylpiperazin-1-yl)methyl]-7,8,15,16-tetrahydro-18,21-etheno-9,13-(metheno)-6,14,17-trioxa-2-thia-3,5-diazacyclononadeca[1,2,3-cd]indene-7-carboxylic acid]
IC50 [1]: 0.00565 µM | Ki (GST-MCL-1; [3]): 4.11 nM | Ki (GST-MCL-1; [4]): 0.09 nM | IC50 [2]: 0.001 µM

Cc1c(Cl)c2c(Cl)c(C)c1-c1c(-c3ccc(F)cc3)sc3ncnc(c13)O[C@@H](C(=O)O)Cc1cc(ccc1OCc1ccnc(N3CCO[C@@H](COCC4COCCO4)C3)n1)OC[C@@H](CN1CCN(C)CC1)O2 (stereo partly drawn) [Example 20, (7R,16R)-19,23-dichloro-10-({2-[(2R)-2-{[(1,4-dioxan-2-yl)methoxy]methyl}morpholin-4-yl]pyrimidin-4-yl}methoxy)-1-(4-fluorophenyl)-20,22-dimethyl-16-[(4-methylpiperazin-1-yl)methyl]-7,8,15,16-tetrahydro-18,21-etheno-13,9-(metheno)-6,14,17-trioxa-2-thia-3,5-diazacyclononadeca[1,2,3-cd]indene-7-carboxylic acid]
IC50 [1]: 0.000513 µM | Ki (GST-MCL-1; [3]): 0.47 nM | Ki (GST-MCL-1; [4]): 0.058 nM | IC50 [2]: 0.000286 µM
